{"source": "patent US20140011755A1", "about": "“Cardiac Glycosides for Treating Autoimmune Disease” (Department of Veterans Affairs, priority 2010, published 2014)", "key": {"SLE-like disease": {"test_system": "SLE-like disease", "assay": "MRL-Ipr mouse model of systemic lupus erythematosus", "format": "in vivo, MRL-Ipr female mice", "experimental": "FIG. 16. […] SLE-like disease progression in MRL-Ipr female mice (Jackson Laboratories) was evaluated. Briefly, 10 mice per treatment arm were followed for the development of SLE-like disease over the course of 16 weeks. […] Animals were scored on a weekly basis for proteinuria and survived until 23 weeks of age. Data represent the average proteinuria concentration in urine collected from each mouse using Uristix (Bayer Corp.). Error bars represent SEM. The Mann-Whitney test was used to determine significance between vehicle and digitoxin groups. Asterisks represent significant P values <0.01.\nFIG. 17. […] At endpoint, 23 week old female MRL-Ipr mice were sacrificed and kidneys were fixed, embedded in paraffin, sectioned longitudinally and stained for glomeruli with periodic acid-Schiff stain (Histotec). (A) Depiction of a section taken from a representative vehicle treated kidney. (B) Depiction of a section taken from a representative digitoxin treated kidney.\nFIG. 18. […] Endpoint serum titers were taken for each mouse and the concentration of anti-double-stranded DNA (ANA) antibodies were assessed (A). […] ANA antibodies were measured using ELISA (Alpha Diagnostic International). Error bars represent the SEM. The student t-test was used to determine significance. Asterisks represent significant P values.\nCardiac glycosides are used for the treatment of systemic lupus erythematosus and other forms of multi-system inflammatory diseases. […] Studies are conducted to determine the ability of cardiac glycosides to treat SLE. The effectiveness of cardiac glycosides at treating SLE disease progression in MRL-Ipr female mice (Jackson Laboratories) was evaluated. Briefly, 10 mice per experimental arm were followed for the development of SLE disease. […] Animals were scored on a weekly basis for proteinuria and survived until 23 weeks of age (FIG. 16). Weekly proteinuria monitoring was performed using Uristix (Bayer Corp.). […] Endpoint serum titres of double-stranded DNA (ANA) antibodies for each mouse were assessed (FIG. 18 A). […] ANA antibodies were measured using ELISA (Alpha Diagnostic International). […]"}, "CD40 [1]": {"target": "T1, CD40 (Mus musculus, UniProt P27512)", "T1 construct": "Peritoneal and bone marrow-derived macrophages were isolated from CIA mice; endogenous in cells; host or cells: peritoneal and bone marrow-derived macrophages from CIA mice", "T1 sequence (P27512 20-289)": "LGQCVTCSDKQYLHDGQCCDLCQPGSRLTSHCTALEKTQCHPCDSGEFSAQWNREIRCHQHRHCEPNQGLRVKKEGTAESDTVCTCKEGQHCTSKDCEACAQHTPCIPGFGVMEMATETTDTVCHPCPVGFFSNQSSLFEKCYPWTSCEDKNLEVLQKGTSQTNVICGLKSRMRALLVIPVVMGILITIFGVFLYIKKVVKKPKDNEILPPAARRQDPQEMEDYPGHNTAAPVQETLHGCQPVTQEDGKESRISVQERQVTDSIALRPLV", "assay": "CD40-mediated B cell proliferation (anti-CD40, CD40L)", "format": "cell-based, mice", "settings": "pre-treatment of B cells", "experimental": "(§1) Activity was monitored by ^3H-thymidine incorporation as a read-out for proliferation. […] Cell type(s) in the splenocyte population responsive to therapeutic concentrations of cardiac glycoside were determined by identifying the population of cells that responded to a dose-dependent decrease in activity in the presence of stimulant, defined as ligand(s) binding to cognate receptor(s). Activity was analyzed by: ^3H-thymidine or BrdU incorporation to monitor proliferation or by ELISA to monitor cytokine production. Splenic T lymphocytes were isolated by negative selection (MACS, Miltinyi Biotec) and are stimulated with PMA, ConA or through the TCR with anti-CD3/anti-CD28 Dynabeads (Invitrogen) and collagen II (all non-TNFR receptors/pathways). […] Peritoneal and bone marrow-derived macrophages were isolated from CIA mice in the presence of M-CSF growth factor and were stimulated with TNF and CD40 ligand (CD40L). […] Splenic B lymphocytes were isolated by negative selection (MACS, Miltinyi Biotec) and were stimulated with BAFF (BLyS), CD40L or through the BCR with anti-IgM u-chain specific antibodies."}, "[2]": {"test_system": "B cell receptor (membrane Ig)", "assay": "B cell receptor mediated B cell proliferation", "format": "cell-based, mice", "settings": "pre-treatment of B cells; anti-IgM stimulation", "experimental": "as §1"}, "[3]": {"settings": "CHCI3/16% aqueous methanol (MeOH); cited from earlier work"}, "T cell receptor": {"test_system": "T cell receptor", "format": "cell-based, mice", "settings": "non-TNFR family member; therapeutic concentrations", "experimental": "as §1"}, "CD40 [4]": {"target": "T1, CD40", "format": "cell-based, mice", "settings": "pre-treatment with 3.3 or 33 nM", "experimental": "as §1"}, "TNFR": {"test_system": "TNFR", "format": "cell-based, mice", "settings": "pre-treatment with 3.3 or 33 nM", "experimental": "as §1"}, "BAFFR": {"test_system": "BAFFR", "assay": "BAFF-mediated stimulation of B cells", "format": "cell-based, mice", "settings": "33 nM pre-treatment, BAFF 0.5 or 5 μg/ml", "experimental": "as §1"}, "TNF, IL-6 and IL-1beta": {"test_system": "TNF, IL-6 and IL-1beta", "assay": "Serum cytokine ELISA in CIA treatment groups", "format": "in vivo", "settings": "serum from 3 mice per treatment group, ELISA in triplicate", "description": "FIG. 9. Serum cytokine levels are similar between vehicle and cardiac glycoside treatment groups. […] The unpaired student t-test was used to assess significance."}, "nuclear phospho-p65": {"test_system": "nuclear phospho-p65", "assay": "Western blot of nuclear phospho-p65 in CD40L-stimulated CIA B cells", "format": "cell-based, mice", "settings": "33 nM for 1 h, 50 ng/mL CD40L", "experimental": "FIG. 8. […] Values represent mean light units produced. Error bars represent SEM, and statistical significance was determined by unpaired T-test. Single and double asterisks represent P-values of 0.01 or 0.001, respectively. […] Samples were harvested at designated time points and were fractionated into nuclear and cytoplasmic lysates (Pierce). Lysates were quantified using BCA (Pierce), and were equally loaded according to total protein. Membranes were probed for levels of nuclear phospho-p65 (ReIA), phospho-ReIB, and histone (histone served as loading control and fractionation method control) and cytoplasmic degradation of IκBα (beta-tubulin served as loading control and fractionation method control).\nHeLa cells were co-transfected with the reporter pNFκB-luc and control vector pTAL (Renilla) for 18 h prior to incubation with 0-500 nM cardiac glycoside for 6 h. Cells are stimulated with 50 ng/mL TNF. […] FIG. 8 B)."}}, "data": [{"smiles": "C[C@H]1O[C@@H](O[C@H]2[C@@H](O)C[C@H](O[C@H]3[C@@H](O)C[C@H](O[C@H]4CC[C@@]5(C)[C@H](CC[C@@H]6[C@@H]5CC[C@]5(C)[C@@H](C7=CC(=O)OC7)CC[C@]65O)C4)O[C@@H]3C)O[C@@H]2C)C[C@H](O)[C@@H]1O", "note": "[Digitoxin, digitoxin]", "values": [{"measurement": "disease severity (average proteinuria) in experimental lupus", "setting": "SLE-like disease; 0.6 mg/kg every-4-days sublingual from week 8, 10 mice per arm, Mann-Whitney P<0.01", "value": "decrease disease severity"}, {"measurement": "kidney pathology (periodic acid-Schiff stained glomeruli)", "setting": "SLE-like disease; 23 week old mice at endpoint, 0.6 mg/kg every-4-days sublingual", "value": "decrease kidney pathology"}, {"measurement": "endpoint serum anti-double-stranded DNA (ANA) antibodies", "setting": "SLE-like disease; endpoint serum, ELISA", "value": "inhibit autoantibody production"}, {"measurement": "CD40L-mediated B cell proliferation", "setting": "CD40 [1]", "value": "inhibited CD40L-mediated proliferation"}, {"measurement": "anti-CD40 mediated B cell proliferation", "setting": "CD40 [1]", "value": "prevented anti-CD40 mediated B cell proliferation"}, {"measurement": "B cell receptor mediated B cell proliferation", "setting": "[2]", "value": "did not inhibit"}, {"measurement": "Partition Coefficient", "setting": "[3]", "value": 96.5}, {"measurement": "proliferation of T cells in response to stimulation through the T cell receptor", "setting": "T cell receptor", "value": "did not alter proliferation"}, {"measurement": "CD40L-mediated activation of macrophage through CD40", "setting": "CD40 [4]", "value": "inhibits"}, {"measurement": "TNF-mediated activation of macrophage through TNFR", "setting": "TNFR", "value": "inhibits"}, {"measurement": "BAFF-mediated stimulation of B cells through BAFFR", "setting": "BAFFR", "value": "inhibited BAFF-mediated stimulation"}, {"measurement": "Serum cytokine levels (TNF, IL-6 and IL-1beta) versus vehicle", "setting": "TNF, IL-6 and IL-1beta", "value": "similar"}, {"measurement": "amount of nuclear phospho-p65 following CD40L stimulation", "setting": "nuclear phospho-p65", "value": "significantly reduced"}]}]}
